Source: patent US8703934B2, “Substituted 4-amino-3,5-dicyano-2-thiopyridines and use thereof” (Bayer Intellectual Property GmbH, priority 2006, dated 2014)

What was measured:
Assay type in all cases: cell-based
[1] = molecular target: T1, adenosine A2b receptor (Homo sapiens, UniProt P29275); test: Indirect determination of adenosine agonism by way of gene expression (luciferase, CHO cells), A2b; settings: CHO cells stably transfected with A2b receptor cDNA; 50% of maximum luciferase stimulation
T1 construct: expressed in transfected cells; host or cells: CHO (Chinese Hamster Ovary)
T1 sequence (P29275 1-332): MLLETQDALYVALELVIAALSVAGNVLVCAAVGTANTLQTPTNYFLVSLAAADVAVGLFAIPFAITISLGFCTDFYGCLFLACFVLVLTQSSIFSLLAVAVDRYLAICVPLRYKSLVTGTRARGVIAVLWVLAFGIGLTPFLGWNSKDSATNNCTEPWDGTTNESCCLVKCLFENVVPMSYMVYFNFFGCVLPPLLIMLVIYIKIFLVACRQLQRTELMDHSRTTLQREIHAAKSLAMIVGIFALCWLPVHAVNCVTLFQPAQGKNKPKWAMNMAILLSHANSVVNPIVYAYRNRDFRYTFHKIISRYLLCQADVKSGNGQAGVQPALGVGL
Text: (§1) B-1. Indirect Determination of the Adenosine Agonism by Way of Gene Expression
(§2) Cells of the CHO (Chinese Hamster Ovary) permanent cell line are transfected stably with the cDNA for the adenosine receptor subtypes A1, A2a and A2b. The adenosine A1 receptors are coupled to the adenylate cyclase by way of G, proteins, while the adenosine A2a and A2b receptors are coupled by way of Gs proteins. In correspondence with this, the formation of cAMP in the cell is inhibited or stimulated, respectively. After that, expression of the luciferase is modulated by way of a cAMP-dependent promoter. The luciferase test is optimized, with the aim of high sensitivity and reproducibility, low variance and good suitability for implementation on a robot system, by varying several test parameters, such as cell density, duration of the growth phase and the test incubation, forskolin concentration and medium composition. The following test protocol is used for pharmacologically characterizing cells and for the robot-assisted substance screening:
(§3) The stock cultures are grown, at 37° C. and under 5% CO2, in DMEM/F12 medium containing 10% FCS (fetal calf serum) and in each case split 1:10 after 2-3 days. The test cultures are seeded in 384-well plates with 2000 cells per well and grown at 37° C. for approx. 48 hours. The medium is then replaced with a physiological sodium chloride solution (130 mM sodium chloride, 5 mM potassium chloride, 2 mM calcium chloride, 20 mM HEPES, 1 mM magnesium chloride hexahydrate, 5 mM sodium bicarbonate, pH 7.4). The substances to be tested, which are dissolved in DMSO, are pipetted into the test cultures (maximum final concentration of DMSO in the test mixture: 0.5%) in a dilution series of from 5×10^−11M to 3×10^−6M (final concentration). 10 minutes later, forskolin is added to the A1 cells and all the cultures are subsequently incubated at 37° C. for four hours. After that, 35 μl of a solution which is composed of 50% lysis reagent (30 mM disodium hydrogenphosphate, 10% glycerol, 3% TritonX100, 25 mM TrisHCl, 2 mM dithiotreitol (DTT), pH 7.8) and 50% luciferase substrate solution (2.5 mM ATP, 0.5 mM luciferin, 0.1 mM coenzyme A, 10 mM tricine, 1.35 mM magnesium sulfate, 15 mM DTT, pH 7.8) are added to the test cultures, which are shaken for approx 1 minute and the luciferase activity is measured using a camera system. The EC50 values are determined, i.e., the concentrations at which 50% of the luciferase answer is inhibited in the case of the A1 cell, and, respectively, 50% of the maximum stimulation with the corresponding substance is achieved in the case of the A2b and A2a cells. […] Pharmacol., 357 (1998), 1-9).

[2] = molecular target: T2, adenosine A2a receptor (Homo sapiens, UniProt P29274); test: Indirect determination of adenosine agonism by way of gene expression (luciferase, CHO cells), A2a; settings: CHO cells stably transfected with A2a receptor cDNA; 50% of maximum luciferase stimulation
T2 construct: expressed in transfected cells; host or cells: CHO (Chinese Hamster Ovary)
T2 sequence (P29274 whole entry): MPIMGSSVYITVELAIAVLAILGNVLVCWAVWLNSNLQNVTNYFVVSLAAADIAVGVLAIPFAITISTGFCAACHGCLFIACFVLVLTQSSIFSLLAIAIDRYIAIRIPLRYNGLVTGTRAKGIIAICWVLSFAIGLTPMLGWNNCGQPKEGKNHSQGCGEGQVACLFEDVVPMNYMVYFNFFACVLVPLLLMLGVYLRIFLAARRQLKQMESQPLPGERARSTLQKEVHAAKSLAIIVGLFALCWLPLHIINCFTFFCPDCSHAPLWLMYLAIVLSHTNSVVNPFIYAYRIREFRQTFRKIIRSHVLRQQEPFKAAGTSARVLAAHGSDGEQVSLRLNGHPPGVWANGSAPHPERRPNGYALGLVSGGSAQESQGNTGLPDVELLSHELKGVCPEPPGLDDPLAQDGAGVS
Text: as §1, §2, §3

[3] = molecular target: T3, adenosine A1 receptor (Homo sapiens, UniProt P30542); test: Indirect determination of adenosine agonism by way of gene expression (luciferase, CHO cells), A1; settings: CHO cells stably transfected with A1 receptor cDNA; 1 μM forskolin; 50% inhibition of luciferase answer
T3 construct: expressed in transfected cells; host or cells: CHO (Chinese Hamster Ovary)
T3 sequence (P30542 1-326): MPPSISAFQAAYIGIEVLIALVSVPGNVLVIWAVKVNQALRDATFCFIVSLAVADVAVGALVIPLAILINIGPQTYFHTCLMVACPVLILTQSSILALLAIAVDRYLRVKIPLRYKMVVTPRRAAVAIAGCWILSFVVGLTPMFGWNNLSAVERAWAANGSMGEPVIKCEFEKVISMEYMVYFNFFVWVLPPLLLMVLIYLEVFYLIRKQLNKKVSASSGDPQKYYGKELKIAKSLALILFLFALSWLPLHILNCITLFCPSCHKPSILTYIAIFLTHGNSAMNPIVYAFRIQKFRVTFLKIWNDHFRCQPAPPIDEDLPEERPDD
Text: as §1, §2, §3

EC50 [1] | EC50 [2] | EC50 [3] | SMILES
> 3 µM | > 3 µM | 12 nM | CN1CCN(c2c(C#N)c(N)nc(SCc3csc(-c4ccc(Cl)cc4)n3)c2C#N)CC1 [Example 4]
0.044 µM | 0.385 µM | 0.5 nM | N#Cc1c(N)nc(SCc2csc(-c3ccc(Cl)cc3)n2)c(C#N)c1N1CCCCC1 [Example 2]
0.403 µM | 0.357 µM | 2.2 nM | N#Cc1c(N)nc(SCc2coc(-c3ccc(Cl)cc3)n2)c(C#N)c1N1CCCCC1 [Example 37, 2-Amino-6-({[2-(4-chlorophenyl)-1,3-oxazol-4-yl]methyl}sulfanyl)-4-(piperidin-1-yl)pyridine-3,5-dicarbonitrile]
0.116 µM | 0.686 µM | 1.3 nM | N#Cc1c(N)nc(SCc2csc(-c3ccc(Cl)cc3)n2)c(C#N)c1N1CCC(O)CC1 [Example 1, 2-Amino-6-({[2-(4-chlorophenyl)-1,3-thiazol-4-yl]methyl}thio)-4-(4-hydroxypiperidin-1-yl)pyridine-3,5-dicarbonitrile]
> 3 µM | 1.81 µM | 45 nM | N#Cc1c(N)nc(SCc2csc(Nc3ccc(F)cc3)n2)c(C#N)c1N1CCCCC1 [Example 6]
0.056 µM | 1.03 µM | 5.7 nM | N#Cc1c(SCc2csc(-c3ccc(Cl)cc3)n2)nc(N2CCC(O)C2)c(C#N)c1N1CCCCC1 (stereo not drawn) [Example 30]
> 3 µM | > 3 µM | 46 nM | N#Cc1cnc(SCc2csc(-c3ccc(Cl)cc3)n2)c(C#N)c1N1CCCCC1 [Example 34, 2-({[2-(4-Chlorophenyl)-1,3-thiazol-4-yl]methyl}thio)-4-(piperidin-1-yl)pyridine-3,5-dicarbonitrile]
0.0009 µM | 0.063 µM | 0.3 nM | N#Cc1c(N)nc(SCc2ccc[n+]([O-])c2)c(C#N)c1N1CCCCC1 [Example 27]
> 3 µM | > 3 µM | 8.6 nM | COc1nc(SCc2csc(-c3ccc(Cl)cc3)n2)c(C#N)c(N2CCCCC2)c1C#N [Example 35, 2-({[2-(4-Chlorophenyl)-1,3-thiazol-4-yl]methyl}thio)-6-methoxy-4-(piperidin-1-yl)pyridine-3,5-dicarbonitrile]
